In the CheMixHub viscosity set:

Test: xn = mol fraction of the nth substance listed

O=C1CCCN1 + O
Details	viscosity [mPa·s]
298.15 K, 100 kPa, x1 = 0.0115	1.015
298.15 K, 100 kPa, x1 = 0.0189	1.099
298.15 K, 100 kPa, x1 = 0.0287	1.211
298.15 K, 100 kPa, x1 = 0.0388	1.328
298.15 K, 100 kPa, x1 = 0.0505	1.472
298.15 K, 100 kPa, x1 = 0.0598	1.591
298.15 K, 100 kPa, x1 = 0.0698	1.725
298.15 K, 100 kPa, x1 = 0.0803	1.875
298.15 K, 100 kPa, x1 = 0.0898	2.013
298.15 K, 100 kPa, x1 = 0.1007	2.241
298.15 K, 100 kPa, x1 = 0.1507	3.167
298.15 K, 100 kPa, x1 = 0.2024	4.25
298.15 K, 100 kPa, x1 = 0.2554	5.425
298.15 K, 100 kPa, x1 = 0.3052	6.531
298.15 K, 100 kPa, x1 = 0.3568	7.599
298.15 K, 100 kPa, x1 = 0.4091	8.579
298.15 K, 100 kPa, x1 = 0.4579	9.388
298.15 K, 100 kPa, x1 = 0.5569	10.69
298.15 K, 100 kPa, x1 = 0.6612	11.65
298.15 K, 100 kPa, x1 = 0.7216	12.08
298.15 K, 100 kPa, x1 = 0.8231	12.63
298.15 K, 100 kPa, x1 = 0.8637	12.82
298.15 K, 100 kPa, x1 = 0.9213	13.08
298.15 K, 100 kPa, x1 = 0.9301	13.11
298.15 K, 100 kPa, x1 = 0.9395	13.16
298.15 K, 100 kPa, x1 = 0.9491	13.18
298.15 K, 100 kPa, x1 = 0.9588	13.21
298.15 K, 100 kPa, x1 = 0.969	13.22
298.15 K, 100 kPa, x2 = 0.0105	13.3
304.15 K, 101.33 kPa, x2 = 0.1162	10.05
304.15 K, 101.33 kPa, x2 = 0.1885	9.771
304.15 K, 101.33 kPa, x2 = 0.2962	9.28
304.15 K, 101.33 kPa, x2 = 0.407	8.553
304.15 K, 101.33 kPa, x2 = 0.5061	7.697
304.15 K, 101.33 kPa, x2 = 0.5975	6.611
304.15 K, 101.33 kPa, x2 = 0.6831	5.353
304.15 K, 101.33 kPa, x2 = 0.8066	3.322
304.15 K, 101.33 kPa, x2 = 0.9019	1.885
308.15 K, 101 kPa, x1 = 0.0921	1.572
308.15 K, 101 kPa, x1 = 0.1915	2.467
308.15 K, 101 kPa, x1 = 0.315	3.573
308.15 K, 101 kPa, x1 = 0.4027	4.339
308.15 K, 101 kPa, x1 = 0.519	5.43
308.15 K, 101 kPa, x1 = 0.5927	6.176
308.15 K, 101 kPa, x1 = 0.6947	6.828
308.15 K, 101 kPa, x1 = 0.7877	7.493
308.15 K, 101 kPa, x1 = 0.9207	8.425
308.15 K, 101.33 kPa, x2 = 0.1162	8.702
308.15 K, 101.33 kPa, x2 = 0.1885	8.419
308.15 K, 101.33 kPa, x2 = 0.2962	7.958
308.15 K, 101.33 kPa, x2 = 0.407	7.333
308.15 K, 101.33 kPa, x2 = 0.5061	6.591
308.15 K, 101.33 kPa, x2 = 0.5975	5.665
308.15 K, 101.33 kPa, x2 = 0.6831	4.612
308.15 K, 101.33 kPa, x2 = 0.8066	2.917
308.15 K, 101.33 kPa, x2 = 0.9019	1.69
313.15 K, 101 kPa, x1 = 0.0803	1.274
313.15 K, 101 kPa, x1 = 0.1598	2.074
313.15 K, 101 kPa, x1 = 0.2476	3.053
313.15 K, 101 kPa, x1 = 0.3087	3.73
313.15 K, 101 kPa, x1 = 0.4	4.641
313.15 K, 101 kPa, x1 = 0.4668	5.207
313.15 K, 101 kPa, x1 = 0.5478	5.763
313.15 K, 101 kPa, x1 = 0.6434	6.298
313.15 K, 101 kPa, x1 = 0.7195	6.627
313.15 K, 101 kPa, x1 = 0.7991	6.924
313.15 K, 101 kPa, x1 = 0.8781	7.184
313.15 K, 101 kPa, x1 = 0.9585	7.432
313.15 K, 101.33 kPa, x2 = 0.1162	7.3
313.15 K, 101.33 kPa, x2 = 0.1885	7.066
313.15 K, 101.33 kPa, x2 = 0.2962	6.647
313.15 K, 101.33 kPa, x2 = 0.407	6.111
313.15 K, 101.33 kPa, x2 = 0.5061	5.506
313.15 K, 101.33 kPa, x2 = 0.5975	4.74
313.15 K, 101.33 kPa, x2 = 0.6831	3.873
313.15 K, 101.33 kPa, x2 = 0.8066	2.495
313.15 K, 101.33 kPa, x2 = 0.9019	1.483
318.15 K, 101.33 kPa, x2 = 0.1162	6.211
318.15 K, 101.33 kPa, x2 = 0.1885	5.985
318.15 K, 101.33 kPa, x2 = 0.2962	5.641
318.15 K, 101.33 kPa, x2 = 0.407	5.164
318.15 K, 101.33 kPa, x2 = 0.5061	4.656
318.15 K, 101.33 kPa, x2 = 0.5975	4.004
318.15 K, 101.33 kPa, x2 = 0.6831	3.308
318.15 K, 101.33 kPa, x2 = 0.8066	2.165
318.15 K, 101.33 kPa, x2 = 0.9019	1.313
323.15 K, 101.33 kPa, x2 = 0.1162	5.336
323.15 K, 101.33 kPa, x2 = 0.1885	5.14
323.15 K, 101.33 kPa, x2 = 0.2962	4.823
323.15 K, 101.33 kPa, x2 = 0.407	4.414
323.15 K, 101.33 kPa, x2 = 0.5061	3.987
323.15 K, 101.33 kPa, x2 = 0.5975	3.433
323.15 K, 101.33 kPa, x2 = 0.6831	2.845
323.15 K, 101.33 kPa, x2 = 0.8066	1.901
323.15 K, 101.33 kPa, x2 = 0.9019	1.173
